Patent US4180572A, “Lipogenesis control by esters of benzoxazinecarboxylic acids” (Shell Oil Company, priority 1978, dated 1979)
Counter-ions that a name gives are not always drawn.

test system: swine adipose tissue; assay: Inhibition of lipogenesis (lipid synthesis from glucose-U-14C) in swine adipose tissue slices; format: cell-based; conditions: Sus scrofa, 100 micrograms per milliliter, 37° C., 2 hours, glucose-U14C, insulin, 5% DMSO, triplicate, read-out: Percent Inhibition (of lipogenesis compared to control)
From the text: The manner in which they cause this effect is not known with certainty; it is believed that they interfere with the synthesis of fatty acids in the tissue. Their effectiveness for this purpose has been ascertained by immersing samples of swine adipose tissue in a liquid medium containing radioactive glucose and the test chemical for a period of time, then isolating the lipid from the treated tissue and determining the up-take of the radioactive carbon by means of scintillation counting techniques. These tests were conducted in swine adipose tissue because in swine the primary site of lipogenesis--i.e., fatty acid synthesis--appearsto be adipose tissue. […] 150 milligrams of slices of swine adipose tissue were incubated at 37° C. for 2 hours with shaking in 3 milliliters of Krebs-Ringer bicarbonate solution containing one-half the normal calcium ion concentration, 60 micromoles of glucose, 0.5 microCurie of glucose-U^14 C, and 300 microunits of insulin, and 5% dimethyl sulfoxide (DMSO). The test compounds were added as a solution or suspension in DMSO and were present at a concentration of 100 micrograms per milliliter of the incubation mixture. The incubation was terminated by addition of 0.25 milliliter of 1 N sulfuric acid. The resulting mixture was extracted with a total of 25 milliliters of chloroform:methanol (2:1, v/v). The extracts were washed according to Folch et al. (J. Biol. […] The tests were conducted in triplicate and were accompanied by control tests in which all ingredients,proportions and conditions were the same except that no test compound was included. From the data obtained were calculated the percent inhibition of lipid synthesis by the test compound in each case. The data obtained from the tests were set out in Table I, as the percent inhibition of lipogenesis compared to the results obtained in the control tests wherein only the test compound was omitted.

Compared with `CCOC(=O)C1CNc2ccc([N+](=O)[O-])cc2O1` (stereo not drawn) [Compound 14, ethyl 7-nitro-3,4-dihydro-2H-1,4-benzoxazine-2-carboxylate], `CCOC(=O)C1CNc2cc([N+](=O)[O-])ccc2O1` (stereo not drawn) [Compound 4, ethyl 6-nitro-3,4-dihydro-2H-1,4-benzoxazine-2-carboxylate] is lower in inhibition at 100 µg/mL: 92% for the first, 74% for the second.

Going from `CCOC(=O)C1CNc2cccc(Cl)c2O1` (stereo not drawn) [Compound 12, ethyl 8-chloro-3,4-dihydro-2H-1,4-benzoxazine-2-carboxylate] to `CCOC(=O)C1CNc2cc(Cl)ccc2O1` (stereo not drawn) [Compound 2, Ethyl 6-chloro-3,4-dihydro-2H-1,4-benzoxazine-2-carboxylate], the inhibition at 100 µg/mL falls from 39% to 28%.

First: CCOC(=O)C1CNc2cc(NS(C)(=O)=O)ccc2O1 (stereo not drawn) [Compound 6, ethyl 3,4-dihydro-6-((methylsulfonyl)amino)-2H-1,4-benzoxazine-2-carboxylate]
Second: CCOC(=O)C1CNc2cc(C)ccc2O1 (stereo not drawn) [Compound 3, Ethyl 6-methyl-3,4-dihydro-2H-1,4-benzoxazine-2-carboxylate hydrochloride]
The inhibition at 100 µg/mL of the first is higher: 76% for the first, 18% for the second.

Going from `CCOC(=O)C1CNc2cc(OC)ccc2O1` (stereo not drawn) [Compound 8, ethyl 6-methoxy-2,3-dihydro-2H-1,4-benzoxazine-2-carboxylate] to `CCOC(=O)C1CNc2cc(N)ccc2O1` (stereo not drawn) [Compound 5, ethyl 6-amino-3,4-dihydro-2H-1,4-benzoxazine-2-carboxylate hydrochloride], the inhibition at 100 µg/mL falls from 81% to 43%.

Compared with `CCOC(=O)C1CNc2cc(-c3ccccc3)ccc2O1` (stereo not drawn) [Compound 13, ethyl 6-phenyl-3,4-dihydro-2H-1,4-benzoxazine-2-carboxylate], `CCOC(=O)C1CNc2ccccc2O1` (stereo not drawn) [Compound 1A, 3,4-dihydro-2H-1,4-benzoxazine-2-carboxylic acid ethyl ester hydrochloride] is higher in inhibition at 100 µg/mL: 34% for the first, 62% for the second.

Going from `CCOC(=O)C1CNc2cc([N+](=O)[O-])cc(Cl)c2O1` (stereo not drawn) [Compound 11, ethyl 8-chloro-6-nitro-3,4-dihydro-2H-1,4-benzoxazine-2-carboxylate] to `CCOC(=O)C1CNc2cc(Cl)c(Cl)cc2O1` (stereo not drawn) [Compound 9, ethyl 6,7-dichloro-2,3-dihydro-2H-1,4-benzoxazine-2-carboxylate], the inhibition at 100 µg/mL rises from 31% to 56%.

First: CCOC(=O)C1CNc2cc(C(F)(F)F)ccc2O1 (stereo not drawn) [Compound 7, ethyl 6-(trifluoromethyl)-3,4-dihydro-2H-1,4-benzoxazine-2-carboxylate]
Second: CCOC(=O)C1CNc2ccc(C)cc2O1 (stereo not drawn) [Compound 10, ethyl 7-methyl-3,4-dihydro-2H-1,4-benzoxazine-2-carboxylate]
The inhibition at 100 µg/mL of the first is lower: 31% for the first, 54% for the second.

Compound `CCOC(=O)C1CN(Cc2ccccc2)c2ccccc2O1` (stereo not drawn) [Compound 1, Ethyl 3,4-dihydro-4-benzyl-2H-1,4-benzoxazine-2-carboxylate] has an inhibition at 100 µg/mL of 53%.
